Read-outs that look alike come from different tables or passages of the source.
Assays:
[1] = test system: PKB (Akt); conditions: read-out: Cellular PKB Mean IC50; MDA-MB-468 cells, phosphorylation of Serine-9 of GSK-3β, 2 hours incubation
[2] = target: AKT1 (PKBα) (Homo sapiens (Human), UniProt P31749); conditions: read-out: In vitro PKBα Mean IC50, AKT1/PKBα active enzyme, Caliper LabChip LC3000
AKT1 (PKBα), sequence (P31749 whole entry): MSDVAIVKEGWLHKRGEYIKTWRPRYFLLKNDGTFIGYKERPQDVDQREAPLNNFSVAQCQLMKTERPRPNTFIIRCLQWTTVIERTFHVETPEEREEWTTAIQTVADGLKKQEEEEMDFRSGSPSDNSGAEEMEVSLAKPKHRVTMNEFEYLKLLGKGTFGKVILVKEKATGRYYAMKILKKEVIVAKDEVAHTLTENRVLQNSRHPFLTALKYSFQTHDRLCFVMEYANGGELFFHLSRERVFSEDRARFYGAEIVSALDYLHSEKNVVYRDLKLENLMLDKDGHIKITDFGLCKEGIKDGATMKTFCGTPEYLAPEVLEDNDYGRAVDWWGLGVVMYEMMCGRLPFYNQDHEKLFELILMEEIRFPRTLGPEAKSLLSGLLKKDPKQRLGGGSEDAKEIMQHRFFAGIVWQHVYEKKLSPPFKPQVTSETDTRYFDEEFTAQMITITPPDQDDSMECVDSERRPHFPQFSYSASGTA

SMILES	IC50 [1]	IC50 [2]	IC50 ([2]; tested once only)
NCC(NC(=O)C1(N)CCN(c2ncnc3[nH]ccc23)CC1)c1ccc(Cl)cc1 (stereo not drawn) [Example 5, 4-amino-N-(2-amino-1-(4-chlorophenyl)ethyl)-1-(7H-pyrrolo[2,3-d]pyrimidin-4-yl)piperidine-4-carboxamide]	0.27 µM	0.0097 µM	
C[C@H](NC(=O)C1(CN)CCN(c2ncnc3[nH]ccc23)CC1)c1ccc(Cl)cc1 [Example 6, (S)-4-(aminomethyl)-N-(1-(4-chlorophenyl)ethyl)-1-(7H-pyrrolo[2,3-d]pyrimidin-4-yl)piperidine-4-carboxamide]	0.02 µM	0.0012 µM	
CC(=O)NCCC(NC(=O)C1(N)CCN(c2ncnc3[nH]ccc23)CC1)c1ccc(Cl)cc1 (stereo not drawn) [Example 10, N-(3-acetamido-1-(4-chlorophenyl)propyl)-4-amino-1-(7H-pyrrolo[2,3-d]pyrimidin-4-yl)piperidine-4-carboxamide]	0.25 µM	0.0042 µM	
NCC1(C(=O)NC(CCO)c2ccc(Cl)cc2)CCN(c2ncnc3[nH]ccc23)CC1 (stereo not drawn) [Example 12, 4-(aminomethyl)-N-(1-(4-chlorophenyl)-3-hydroxypropyl)-1-(7H-pyrrolo[2,3-d]pyrimidin-4-yl)piperidine-4-carboxamide]	0.1 µM		
NCCC(NC(=O)C1(N)CCN(c2ncnc3[nH]ccc23)CC1)c1ccc(Cl)cc1 (stereo not drawn) [Example 14, 4-amino-N-(3-amino-1-(4-chlorophenyl)propyl)-1-(7H-pyrrolo[2,3-d]pyrimidin-4-yl)piperidine-4-carboxamide]	0.94 µM	0.003 µM	
NC1(C(=O)N[C@H](CCO)c2ccc(Cl)cc2)CCN(c2ncnc3[nH]ccc23)CC1 [Example 15, (R)-4-amino-N-(1-(4-chlorophenyl)-3-hydroxypropyl)-1-(7H-pyrrolo[2,3-d]pyrimidin-4-yl)piperidine-4-carboxamide]	> 3.1 µM		
C[C@@H](NC(=O)C1(CN)CCN(c2ncnc3[nH]ccc23)CC1)c1ccc(Cl)cc1 [Example 17, (R)-4-(aminomethyl)-N-(1-(4-chlorophenyl)ethyl)-1-(7H-pyrrolo[2,3-d]pyrimidin-4-yl)piperidine-4-carboxamide]	0.24 µM	0.012 µM	
N#Cc1ccc([C@H](CCO)NC(=O)C2(N)CCN(c3ncnc4[nH]ccc34)CC2)cc1 [Example 18, (S)-4-amino-N-(1-(4-cyanophenyl)-3-hydroxypropyl)-1-(7H-pyrrolo[2,3-d]pyrimidin-4-yl)piperidine-4-carboxamide]	1.4 µM	0.016 µM	
NC1(C(=O)N[C@@H](CCO)c2ccc(Cl)cc2)CCN(c2ncnc3[nH]cc(Br)c23)CC1 [Example 19, (S)-4-amino-1-(5-bromo-7H-pyrrolo[2,3-d]pyrimidin-4-yl)-N-(1-(4-chlorophenyl)-3-hydroxypropyl)piperidine-4-carboxamide]	0.26 µM		
NC1(C(=O)N[C@@H](CCO)c2ccc(Cl)cc2)CCN(c2ncnc3[nH]ncc23)CC1 [Example 20, (S)-4-amino-N-(1-(4-chlorophenyl)-3-hydroxypropyl)-1-(1H-pyrazolo[3,4-d]pyrimidin-4-yl)piperidine-4-carboxamide]	0.98 µM		0.02 µM
NC1(C(=O)N[C@@H](CCO)c2ccccc2)CCN(c2ncnc3[nH]ccc23)CC1 [Example 21, (S)-4-amino-N-(3-hydroxy-1-phenylpropyl)-1-(7H-pyrrolo[2,3-d]pyrimidin-4-yl)piperidine-4-carboxamide]	> 3.1 µM		0.059 µM
NC1(C(=O)N[C@@H](CCO)c2ccc(Cl)cc2)CCN(c2ncnc3[nH]cnc23)CC1 [Example 22, (S)-4-amino-N-(1-(4-chlorophenyl)-3-hydroxypropyl)-1-(9H-purin-6-yl)piperidine-4-carboxamide]	0.17 µM	0.0075 µM	
NCC1(C(=O)N[C@@H](CCO)c2ccc(Cl)cc2)CCN(c2ncnc3[nH]ccc23)CC1 [Example 23, (S)-4-(aminomethyl)-N-(1-(4-chlorophenyl)-3-hydroxypropyl)-1-(7H-pyrrolo[2,3-d]pyrimidin-4-yl)piperidine-4-carboxamide]	0.08 µM	0.0013 µM	
NC1(C(=O)N[C@@H](CCO)c2ccc(Br)cc2)CCN(c2ncnc3[nH]ccc23)CC1 [Example 24, (S)-4-amino-N-(1-(4-bromophenyl)-3-hydroxypropyl)-1-(7H-pyrrolo[2,3-d]pyrimidin-4-yl)piperidine-4-carboxamide]	0.06 µM	0.0022 µM	
CCN(CC)CC[C@H](NC(=O)C1(N)CCN(c2ncnc3[nH]ccc23)CC1)c1ccc(Cl)cc1 [Example 26, (S)-4-amino-N-(1-(4-chlorophenyl)-3-(diethylamino)propyl)-1-(7H-pyrrolo[2,3-d]pyrimidin-4-yl)piperidine-4-carboxamide]	0.09 µM	0.0056 µM	
NC1(C(=O)N[C@@H](CCO)c2ccc(Cl)cc2)CCN(c2ncnc3[nH]cc(C4CC4)c23)CC1 [Example 27, (S)-4-amino-N-(1-(4-chlorophenyl)-3-hydroxypropyl)-1-(5-cyclopropyl-7H-pyrrolo[2,3-d]pyrimidin-4-yl)piperidine-4-carboxamide]	0.37 µM		

SMILES	IC50 [1]	IC50 [2]	IC50 ([2]; tested once only)
CNCCC(NC(=O)C1(N)CCN(c2ncnc3[nH]ccc23)CC1)c1ccc(Cl)cc1 (stereo not drawn) [Example 28, 4-amino-N-(1-(4-chlorophenyl)-3-(methylamino)propyl)-1-(7H-pyrrolo[2,3-d]pyrimidin-4-yl)piperidine-4-carboxamide]	0.47 µM	0.0045 µM	
C[C@H](NC(=O)C1(N)CCN(c2ncnc3[nH]nc(Br)c23)CC1)c1ccc(Cl)cc1 [Example 31, 4-amino-1-(3-bromo-1H-pyrazolo[3,4-d]pyrimidin-4-yl)-N-[(1S)-1-(4-chlorophenyl)ethyl]piperidine-4-carboxamide]	1.1 µM	0.024 µM	
C[C@H](NC(=O)C1(N)CCN(c2ncnc3[nH]cc(Cl)c23)CC1)c1ccc(Cl)cc1 [Example 32, 4-amino-N-[(1S)-1-(4-chlorophenyl)ethyl]-1-(5-chloro-7H-pyrrolo[2,3-d]pyrimidin-4-yl)piperidine-4-carboxamide]	0.42 µM	0.012 µM	
NC1(C(=O)N[C@@H](CCO)c2ccc(Cl)cc2)CCN(c2ncnc3[nH]nc(Br)c23)CC1 [Example 33, 4-amino-1-(3-bromo-1H-pyrazolo[3,4-d]pyrimidin-4-yl)-N-[(1S)-1-(4-chlorophenyl)-3-hydroxypropyl]piperidine-4-carboxamide]	0.24 µM	0.014 µM	
NC1(C(=O)N[C@@H](CCO)c2ccc(Cl)cc2)CCN(c2ncnc3[nH]cc(Cl)c23)CC1 [Example 34, 4-amino-N-[(1S)-1-(4-chlorophenyl)-3-hydroxypropyl]-1-(5-chloro-7H-pyrrolo[2,3-d]pyrimidin-4-yl)piperidine-4-carboxamide]	0.35 µM	0.0092 µM	
C[C@H](NC(=O)C1(N)CCN(c2ncnc3[nH]cc(Br)c23)CC1)c1ccc(Cl)cc1 [Example 35, 4-amino-1-(5-bromo-7H-pyrrolo[2,3-d]pyrimidin-4-yl)-N-[(1S)-1-(4-chlorophenyl)ethyl]piperidine-4-carboxamide]	0.28 µM	0.004 µM	
Cc1c[nH]c2ncnc(N3CCC(N)(C(=O)N[C@@H](CCO)c4ccc(Cl)cc4)CC3)c12 [Example 36, 4-amino-N-[(1S)-1-(4-chlorophenyl)-3-hydroxypropyl]-1-(5-methyl-7H-pyrrolo[2,3-d]pyrimidin-4-yl)piperidine-4-carboxamide]	0.38 µM	0.014 µM	
Cc1c[nH]c2ncnc(N3CCC(N)(C(=O)N[C@@H](C)c4ccc(Cl)cc4)CC3)c12 [Example 37, 4-amino-N-[(1S)-1-(4-chlorophenyl)ethyl]-1-(5-methyl-7H-pyrrolo[2,3-d]pyrimidin-4-yl)piperidine-4-carboxamide]	0.55 µM	0.019 µM	
CC(C)(O)C[C@H](NC(=O)C1(N)CCN(c2ncnc3[nH]ccc23)CC1)c1ccc(Cl)cc1 [Example 38, 4-amino-N-[(1S)-1-(4-chlorophenyl)-3-hydroxy-3-methylbutyl]-1-(7H-pyrrolo[2,3-d]pyrimidin-4-yl)piperidine-4-carboxamide]	0.36 µM	0.0054 µM	
C[C@H](NC(=O)C1(N)CCN(c2ncnc3[nH]ccc23)CC1)c1ccc(C#N)cc1 [Example 39, 4-amino-N-[(1S)-1-(4-cyanophenyl)ethyl]-1-(7H-pyrrolo[2,3-d]pyrimidin-4-yl)piperidine-4-carboxamide]	1.9 µM		
NC1(C(=O)N[C@@H](CCO)c2cccc(Cl)c2)CCN(c2ncnc3[nH]ccc23)CC1 [Example 40, 4-amino-N-[(1S)-1-(3-chlorophenyl)-3-hydroxypropyl]-1-(7H-pyrrolo[2,3-d]pyrimidin-4-yl)piperidine-4-carboxamide]	1.9 µM	0.032 µM	
C[C@H](NC(=O)C1(N)CCN(c2ncnc3[nH]ccc23)CC1)c1ccc(C(F)(F)F)cc1 [Example 41, 4-amino-1-(7H-pyrrolo[2,3-d]pyrimidin-4-yl)-N-{(1S)-1-[4-(trifluoromethyl)phenyl]ethyl}piperidine-4-carboxamide]	0.54 µM	0.016 µM	
C[C@@H](NC(=O)C1(N)CCN(c2ncnc3[nH]ccc23)CC1)c1ccc(Br)cc1 [Example 42, 4-amino-N-[(1R)-1-(4-bromophenyl)ethyl]-1-(7H-pyrrolo[2,3-d]pyrimidin-4-yl)piperidine-4-carboxamide]	4.3 µM	0.032 µM	
N#CC(NC(=O)C1(N)CCN(c2ncnc3[nH]ccc23)CC1)c1ccc(Cl)cc1 (stereo not drawn) [Example 45, 4-amino-N-[(4-chlorophenyl)(cyano)methyl]-1-(7H-pyrrolo[2,3-d]pyrimidin-4-yl)piperidine-4-carboxamide]	0.77 µM	0.23 µM	
CN1CCN(CC[C@H](NC(=O)C2(N)CCN(c3ncnc4[nH]ccc34)CC2)c2ccc(Cl)cc2)CC1 [Example 50, 4-amino-N-[(1S)-1-(4-chlorophenyl)-3-(4-methylpiperazin-1-yl)propyl]-1-(7H-pyrrolo[2,3-d]pyrimidin-4-yl)piperidine-4-carboxamide]	0.19 µM	0.0043 µM	
